These results are taken from ChEMBL document CHEMBL1152013, “()-Phenylahistin: A new mammalian cell cycle inhibitor produced by aspergillus ustus” (Bioorg Med Chem Lett, 1997).

This experiment deals with P388. Nature of the experiment: Inhibitory concentration required for cytotoxic effect against P388 murine leukemia cells. The class given is functional, cell-based. The settings on record: Mus musculus.

SMILES strings stand for the structures.

In the case of `C=CC(C)(C)c1[nH]cnc1/C=C1\NC(=O)[C@@H](Cc2ccccc2)NC1=O`, half-maximal inhibition (IC50) was put at 38 µM. In the case of `C=CC(C)(C)c1[nH]cnc1/C=C1\NC(=O)[C@H](Cc2ccccc2)NC1=O` it was 0.35 µM.
